Read-outs that look alike come from different tables or passages of the source.
Test system: MTB
Assay type: cell-based, Mycobacterium tuberculosis

CCCCCCCCCC(=O)O[C@@H]1[C@H](OC)[C@@H]([C@@H](O[C@H]2OC(C(=O)N[C@H]3CCC[C@@H](C)NC3=O)=C[C@H](O)[C@@H]2O)C(N)=O)O[C@H]1n1ccc(=O)[nH]c1=O [SQ641]
Frequency of mutation: zero | Resistant colonies: no colonies | Frequency of mutation (second experiment, 8 μg/ml SQ641, 1 μg/ml RIF): zero
